PubChem BioAssay AID1259407 (Chemical Carcinogenesis Research Information System (CCRIS), 2018)
Activity calls are given as the source filed them. How the calls were made is not given here.

System: CCRIS mutagenicity, Ames/micronucleus/aberration tests
Experiment: CCRIS mutagenicity studies
[1] = Test System: AMES SALMONELLA TYPHIMURIUM, Strain/Indicator: TA1535, Metabolic Activation: NONE, Method: PREINCUBATION
[2] = Test System: AMES SALMONELLA TYPHIMURIUM, Strain/Indicator: TA97, Metabolic Activation: NONE, Method: PREINCUBATION
[3] = Test System: AMES SALMONELLA TYPHIMURIUM, Strain/Indicator: TA98, Metabolic Activation: NONE, Method: PREINCUBATION
[4] = Test System: AMES SALMONELLA TYPHIMURIUM, Strain/Indicator: TA100, Metabolic Activation: NONE, Method: PREINCUBATION

[Cl][Ni][Cl]
mutagenic call (End Point: IN VITRO MICRONUCLEUS, Test System: CHL/IU CELLS, Metabolic Activation: NONE): active; positive
mutagenic call (Test System: AMES SALMONELLA TYPHIMURIUM, Strain/Indicator: TA102, Metabolic Activation: NONE, Method: PREINCUBATION): inactive; negative
mutagenic call [1]: inactive; negative
mutagenic call (Test System: AMES SALMONELLA TYPHIMURIUM, Strain/Indicator: TA1538, Metabolic Activation: NONE, Method: PREINCUBATION): inactive; negative
mutagenic call (Test System: AMES SALMONELLA TYPHIMURIUM, Strain/Indicator: TA1975, Metabolic Activation: NONE, Method: PREINCUBATION): inactive; negative
mutagenic call (Test System: AMES SALMONELLA TYPHIMURIUM, Strain/Indicator: TA1978, Metabolic Activation: NONE, Method: PREINCUBATION): inactive; negative
mutagenic call (Test System: CHINESE HAMSTER G10, Strain/Indicator: G10 (GPT)/6-THIOGUANINE, Metabolic Activation: NONE): active; positive
mutagenic call (Test System: CHINESE HAMSTER G10, Strain/Indicator: G10/6-THIOGUANINE, Metabolic Activation: NONE): active; positive
mutagenic call (Test System: CHINESE HAMSTER G12, Strain/Indicator: G12 (GPT)/6-THIOGUANINE, Metabolic Activation: NONE): active; positive
mutagenic call (Test System: CHINESE HAMSTER G12, Strain/Indicator: G12/6-THIOGUANINE, Metabolic Activation: NONE): active; positive
mutagenic call (Test System: CHINESE HAMSTER V-79, Strain/Indicator: SP5 V-79 (HPRT)/6-THIOGUANINE, Metabolic Activation: NONE, Method: STANDARD PLATE): inactive; negative
mutagenic call (Test System: CHINESE HAMSTER V-79, Strain/Indicator: SPD8 V-79 (HPRT)/6-THIOGUANINE, Metabolic Activation: NONE, Method: STANDARD PLATE): active; positive
mutagenic call (Test System: E. COLI, Strain/Indicator: WP2 UVRA, Metabolic Activation: NONE, Method: SPOT TEST): active; positive
mutagenic call (Test System: E. COLI, Strain/Indicator: WP2 UVRA, Metabolic Activation: NONE, Method: STANDARD PLATE): active; positive
mutagenic call (Test System: UDS HUMAN AMNION FL CELL LINE, Strain/Indicator: THY INCORP, Metabolic Activation: NONE, Method: LIQUID SCINTILLATION COUNTING): active; positive

Cc1c(C)c2c(c(C)c1OC(=O)CCC(=O)O)CC[C@@](C)(CCC[C@H](C)CCC[C@H](C)CCCC(C)C)O2
mutagenic call (Test System: AMES SALMONELLA TYPHIMURIUM, Strain/Indicator: TA97, Metabolic Activation: HAMSTER, LIVER, S-9, AROCLOR 1254 (10 OR 30%), Method: PREINCUBATION): inactive; negative
mutagenic call [2]: inactive; negative
mutagenic call (Test System: AMES SALMONELLA TYPHIMURIUM, Strain/Indicator: TA97, Metabolic Activation: RAT, LIVER, S-9, AROCLOR 1254 (10 OR 30%), Method: PREINCUBATION): inactive; negative
mutagenic call (Test System: AMES SALMONELLA TYPHIMURIUM, Strain/Indicator: TA98, Metabolic Activation: HAMSTER, LIVER, S-9, AROCLOR 1254 (10 OR 30%), Method: PREINCUBATION): inactive; negative
mutagenic call [3]: inactive; negative
mutagenic call (Test System: AMES SALMONELLA TYPHIMURIUM, Strain/Indicator: TA98, Metabolic Activation: RAT, LIVER, S-9, AROCLOR 1254 (10 OR 30%), Method: PREINCUBATION): inactive; negative
mutagenic call (Test System: AMES SALMONELLA TYPHIMURIUM, Strain/Indicator: TA100, Metabolic Activation: HAMSTER, LIVER, S-9, AROCLOR 1254 (10 OR 30%), Method: PREINCUBATION): inactive; negative
mutagenic call [4]: inactive; negative
mutagenic call (Test System: AMES SALMONELLA TYPHIMURIUM, Strain/Indicator: TA100, Metabolic Activation: RAT, LIVER, S-9, AROCLOR 1254 (10 OR 30%), Method: PREINCUBATION): inactive; negative
mutagenic call (Test System: AMES SALMONELLA TYPHIMURIUM, Strain/Indicator: TA1535, Metabolic Activation: HAMSTER, LIVER, S-9, AROCLOR 1254 (10 OR 30%), Method: PREINCUBATION): inactive; negative
mutagenic call [1]: inactive; negative
mutagenic call (Test System: AMES SALMONELLA TYPHIMURIUM, Strain/Indicator: TA1535, Metabolic Activation: RAT, LIVER, S-9, AROCLOR 1254 (10 OR 30%), Method: PREINCUBATION): inactive; negative

CCC[CH2][Sn]([Cl])([CH2]CCC)[CH2]CCC
mutagenic call (Test System: AMES SALMONELLA TYPHIMURIUM, Strain/Indicator: TA98, Metabolic Activation: NONE, Method: SUSPENSION/PLATE): inactive; negative
mutagenic call (Test System: AMES SALMONELLA TYPHIMURIUM, Strain/Indicator: TA100, Metabolic Activation: NONE, Method: SUSPENSION/PLATE): active; positive

Cc1ccc2c(c1)c(=NC(=O)CCCCl)sn2C(=O)CCCCl
mutagenic call (Test System: AMES SALMONELLA TYPHIMURIUM, Strain/Indicator: TA100, Metabolic Activation: S-9, Method: STANDARD PLATE): inactive; negative

CCCCCCCCC1OC1CCCCCCCC(=O)OCC(CC)CCCC (stereo not drawn)
mutagenic call (Test System: AMES SALMONELLA TYPHIMURIUM, Strain/Indicator: TA97, Metabolic Activation: HAMSTER, LIVER, S-9, AROCLOR 1254 (10% & 30%), Method: PREINCUBATION): inactive; negative
mutagenic call [2]: inactive; negative
mutagenic call (Test System: AMES SALMONELLA TYPHIMURIUM, Strain/Indicator: TA97, Metabolic Activation: RAT, LIVER, S-9, AROCLOR 1254 (10% & 30%), Method: PREINCUBATION): inactive; negative
mutagenic call (Test System: AMES SALMONELLA TYPHIMURIUM, Strain/Indicator: TA98, Metabolic Activation: HAMSTER, LIVER, S-9, AROCLOR 1254 (10% & 30%), Method: PREINCUBATION): inactive; negative
mutagenic call [3]: inactive; negative
mutagenic call (Test System: AMES SALMONELLA TYPHIMURIUM, Strain/Indicator: TA98, Metabolic Activation: RAT, LIVER, S-9, AROCLOR 1254 (10% & 30%), Method: PREINCUBATION): inactive; negative
mutagenic call (Test System: AMES SALMONELLA TYPHIMURIUM, Strain/Indicator: TA100, Metabolic Activation: HAMSTER, LIVER, S-9, AROCLOR 1254 (10% & 30%), Method: PREINCUBATION): inactive; negative
mutagenic call [4]: inactive; negative
mutagenic call (Test System: AMES SALMONELLA TYPHIMURIUM, Strain/Indicator: TA100, Metabolic Activation: RAT, LIVER, S-9, AROCLOR 1254 (10% & 30%), Method: PREINCUBATION): inactive; negative
mutagenic call (Test System: AMES SALMONELLA TYPHIMURIUM, Strain/Indicator: TA1535, Metabolic Activation: HAMSTER, LIVER, S-9, AROCLOR 1254 (10% & 30%), Method: PREINCUBATION): inactive; negative
mutagenic call [1]: inactive; negative
mutagenic call (Test System: AMES SALMONELLA TYPHIMURIUM, Strain/Indicator: TA1535, Metabolic Activation: RAT, LIVER, S-9, AROCLOR 1254 (10% & 30%), Method: PREINCUBATION): inactive; negative

O=[N+]([O-])c1ccc2c3c(c(O)ccc13)-c1ccccc1-2
mutagenic call (Test System: AMES SALMONELLA TYPHIMURIUM, Strain/Indicator: TA98(1,8-DNP6), Metabolic Activation: NONE, Method: STANDARD PLATE): inactive; negative
mutagenic call (Test System: AMES SALMONELLA TYPHIMURIUM, Strain/Indicator: TA98(NR), Metabolic Activation: NONE, Method: STANDARD PLATE): inactive; negative
mutagenic call (Test System: AMES SALMONELLA TYPHIMURIUM, Strain/Indicator: TA98, Metabolic Activation: NONE, Method: STANDARD PLATE): active; positive
mutagenic call (Test System: AMES SALMONELLA TYPHIMURIUM, Strain/Indicator: TA100(NR), Metabolic Activation: NONE, Method: STANDARD PLATE): inactive; negative
mutagenic call (Test System: AMES SALMONELLA TYPHIMURIUM, Strain/Indicator: TA100(TN5-1,8-DNP1012), Metabolic Activation: NONE, Method: STANDARD PLATE): inactive; negative
mutagenic call (Test System: AMES SALMONELLA TYPHIMURIUM, Strain/Indicator: TA100, Metabolic Activation: NONE, Method: STANDARD PLATE): inactive; negative
